According to patent publication US20230266302A1, “SYNTHESIS AND USE OF N-BENZYL SULFONAMIDES” (THE UNIVERSITY OF TULSA, priority 2020, published 2023):

How the values were obtained:
Assay in all cases: ATP level assay (CellTiter-Glo), percent of control
Type in all cases: cell-based
[1] = system: HDF (normal cells); conditions: two hour incubation; for activity at 100 µM: 2 h, compound alone, control DMSO, read-out: POC (percent of control) HDF
[2] = system: NCI-H196 (lung cancer); conditions: two hour incubation; for activity at 100 µM: NCI-H196, 2 h, compound alone, control DMSO, read-out: POC (percent of control) NCI-H196
[3] = system: T47D (breast cancer); conditions: two hour incubation; for activity at 100 µM: Homo sapiens, T47D, 2 h, compound alone, control DMSO, read-out: POC (percent of control) T47D
[4] = system: H293 (kidney cancer); conditions: two hour incubation; for activity at 100 µM: 2 h, compound alone, control DMSO, read-out: POC (percent of control) H293
[5] = system: SkBr3 (breast cancer); conditions: two hour incubation; for activity at 100 µM: Homo sapiens, SK-BR-3, 2 h, compound alone, control DMSO, read-out: POC (percent of control) SkBr3
[6] = system: MCF7 (breast cancer); conditions: two hour incubation; for activity at 100 µM: Homo sapiens, MCF7, 2 h, compound alone, control DMSO, read-out: POC (percent of control) MCF7
[7] = system: PC3 (prostate cancer); conditions: two hour incubation; for activity at 100 µM: 2 h, compound alone, control DMSO, read-out: POC (percent of control) PC3
[8] = system: BxPC3 (pancreatic cancer); conditions: two hour incubation; for activity at 100 µM: Homo sapiens, BXPC-3, 2 h, compound alone, control DMSO, read-out: POC (percent of control) BxPC3
[9] = system: HeLa (cervical cancer); conditions: two hour incubation; for activity at 100 µM: Homo sapiens, HeLa, 2 h, compound alone, control DMSO, read-out: POC (percent of control) HeLa
[10] = system: MCF10A (non-cancerous breast); conditions: two hour incubation; for activity at 100 µM: Homo sapiens, MCF-10A, 2 h, compound alone, control DMSO, read-out: POC (percent of control) MCF10A
[11] = system: MDA-MB (breast cancer); conditions: two hour incubation; for activity at 100 µM: 2 h, compound alone, control DMSO, read-out: POC (percent of control) MDA-MB
[12] = compound 100 uM + 2DG (about 10-20 mM)
[13] = compound 100 uM + rotenone (approximately 1.25 μM)

SMILES	activity at 100 µM [1]	POC (percent of control) HDF [1, 12]	POC (percent of control) HDF [1, 13]	activity at 100 µM [2]	POC (percent of control) NCI-H196 [2, 12]	POC (percent of control) NCI-H196 [2, 13]	activity at 100 µM [3]	POC (percent of control) T47D [3, 12]	POC (percent of control) T47D [3, 13]	activity at 100 µM [4]	POC (percent of control) H293 [4, 12]	POC (percent of control) H293 [4, 13]	activity at 100 µM [5]	POC (percent of control) SkBr3 [5, 12]	POC (percent of control) SkBr3 [5, 13]	activity at 100 µM [6]	POC (percent of control) MCF7 [6, 12]	POC (percent of control) MCF7 [6, 13]	activity at 100 µM [7]	POC (percent of control) PC3 [7, 12]	further results
Cc1ccc(S(=O)(=O)NCc2cnccn2)cc1 [Compound 16, 4-methyl-N-(pyrazin-2-ylmethyl)benzenesulfonamide]	94.3%	95.6% of control	98.3% of control	110%	99.2% of control	97.6% of control	91.1%	111.6% of control	99.3% of control	80.1%	80.7% of control	81.6% of control	91.9%	81.4% of control	104% of control	123%	93.3% of control	107.5% of control	109%	113.1% of control	POC (percent of control) PC3 [7, 13]: 95.1% of control; activity at 100 µM [8]: 103%; POC (percent of control) BxPC3 [8, 12]: 95.4% of control; POC (percent of control) BxPC3 [8, 13]: 72.7% of control; activity at 100 µM [9]: 96.8%; POC (percent of control) HeLa [9, 12]: 106.8% of control; POC (percent of control) HeLa [9, 13]: 102.3% of control; activity at 100 µM [10]: 113%; POC (percent of control) MCF10A [10, 12]: 118.9% of control; POC (percent of control) MCF10A [10, 13]: 86.2% of control; activity at 100 µM [11]: 106%; POC (percent of control) MDA-MB [11, 12]: 104.5% of control; POC (percent of control) MDA-MB [11, 13]: 92.7% of control
Cc1cccc2c(CNS(=O)(=O)c3ccc(Cl)cc3)c[nH]c12 [Compound 28, 4-chloro-N-[(7-methyl-1H-indol-3-yl)methyl]benzenesulfonamide]	74.9%	56.1% of control	62.2% of control	129%	40.4% of control	60.6% of control	66.1%	33.7% of control	62.2% of control	43.2%	49% of control	43.3% of control	102%	79.6% of control	87.3% of control	79%	60.7% of control	53.5% of control	31.8%	56.5% of control	POC (percent of control) PC3 [7, 13]: 64.8% of control; activity at 100 µM [8]: 40.4%; POC (percent of control) BxPC3 [8, 12]: 41.8% of control; POC (percent of control) BxPC3 [8, 13]: 44.6% of control; activity at 100 µM [9]: 57.7%; POC (percent of control) HeLa [9, 12]: 65.6% of control; POC (percent of control) HeLa [9, 13]: 96.1% of control; activity at 100 µM [10]: 72.8%; POC (percent of control) MCF10A [10, 12]: 29.5% of control; POC (percent of control) MCF10A [10, 13]: 81.1% of control; activity at 100 µM [11]: 77.4%; POC (percent of control) MDA-MB [11, 12]: 45.5% of control; POC (percent of control) MDA-MB [11, 13]: 78.1% of control
O=S(=O)(NCc1cncnc1)c1ccccc1 [Compound 15, N-(pyrimidin-5-ylmethyl)benzenesulfonamide]	89.2%	100.2% of control	91.1% of control	92.3%	115.4% of control	104.5% of control	89.6%	82.5% of control	109.4% of control	99.8%	74.7% of control	84.4% of control	117%	123.3% of control	93% of control	148%	103.4% of control	96.4% of control	109%	117.6% of control	POC (percent of control) PC3 [7, 13]: 106.4% of control; activity at 100 µM [8]: 98.8%; POC (percent of control) BxPC3 [8, 12]: 70.8% of control; POC (percent of control) BxPC3 [8, 13]: 88.9% of control; activity at 100 µM [9]: 103%; POC (percent of control) HeLa [9, 12]: 113.9% of control; POC (percent of control) HeLa [9, 13]: 102.2% of control; activity at 100 µM [10]: 105%; POC (percent of control) MCF10A [10, 12]: 122% of control; POC (percent of control) MCF10A [10, 13]: 98.4% of control; activity at 100 µM [11]: 108%; POC (percent of control) MDA-MB [11, 12]: 91.2% of control; POC (percent of control) MDA-MB [11, 13]: 90.8% of control
Cn1ncc2cc(CNS(=O)(=O)c3ccc(Cl)cc3)ccc21 [Compound 10, 4-chloro-N-[(1-methyl-1H-indazol-5-yl)methyl]benzenesulfonamide]	88.6%	92.7% of control	82.2% of control	106%	90.8% of control	103.7% of control	63.5%	76.6% of control	91.4% of control	106%	84% of control	70.8% of control	90.8%	98% of control	107.3% of control	115%	121.2% of control	89.4% of control	115%	97.8% of control	POC (percent of control) PC3 [7, 13]: 98.7% of control; activity at 100 µM [8]: 66.3%; POC (percent of control) BxPC3 [8, 12]: 62.9% of control; POC (percent of control) BxPC3 [8, 13]: 54.4% of control; activity at 100 µM [9]: 106%; POC (percent of control) HeLa [9, 12]: 91.3% of control; POC (percent of control) HeLa [9, 13]: 85.5% of control; activity at 100 µM [10]: 92%; POC (percent of control) MCF10A [10, 12]: 100.4% of control; POC (percent of control) MCF10A [10, 13]: 83.5% of control; activity at 100 µM [11]: 94.1%; POC (percent of control) MDA-MB [11, 12]: 86.7% of control; POC (percent of control) MDA-MB [11, 13]: 87.4% of control
O=[N+]([O-])c1cccc(S(=O)(=O)NCc2c[nH]c3ccccc23)c1 [Compound 25, N-(1H-indol-3-ylmethyl)-3-nitrobenzenesulfonamide]	79.2%	93.6% of control	95.5% of control	305%	92.9% of control	83% of control	94.4%	88.9% of control	86.7% of control	99.7%	79.6% of control	68.8% of control	112%	88.2% of control	104.1% of control	112%	92.9% of control	104.2% of control	60.2%	96.8% of control	POC (percent of control) PC3 [7, 13]: 80.1% of control; activity at 100 µM [8]: 85.1%; POC (percent of control) BxPC3 [8, 12]: 71.5% of control; POC (percent of control) BxPC3 [8, 13]: 78.2% of control; activity at 100 µM [9]: 89.4%; POC (percent of control) HeLa [9, 12]: 90.8% of control; POC (percent of control) HeLa [9, 13]: 95.6% of control; activity at 100 µM [10]: 95.7%; POC (percent of control) MCF10A [10, 12]: 98.3% of control; POC (percent of control) MCF10A [10, 13]: 80.4% of control; activity at 100 µM [11]: 103%; POC (percent of control) MDA-MB [11, 12]: 86.2% of control; POC (percent of control) MDA-MB [11, 13]: 88.8% of control
